The text below walks through data of ChEMBL document CHEMBL5113369, “A review on the structure and pharmacological activity of phenylethanoid glycosides” (Eur J Med Chem, 2021).

Holding throughout (type): ADME, organism-based, Canis lupus familiaris
Details in all cases: in vivo, dose 10-40 mg/kg

The nature of data set [1]: Tmax in Beagle dog at 10 to 40 mg/kg, po measured up to 8 hrs by LC-MS/MS analysis.
The nature of data set [2]: Half life in Beagle dog at 10 to 40 mg/kg, po measured up to 8 hrs by LC-MS/MS analysis.
Data set [3] can be described thus: Oral bioavailability in Beagle dog at 10 to 40 mg/kg measured up to 8 hrs by LC-MS/MS analysis.

Usually Tmax stands for the time from dosing to the highest level. In general, half-life refers to the time needed for the level to fall by half in the phase considered. By bioavailability is commonly meant the share of a dose that reaches the circulation, judged against a reference dose that is usually intravenous. Turning to `C[C@@H]1O[C@@H](O[C@@H]2[C@@H](O)[C@H](OCCc3ccc(O)c(O)c3)O[C@H](CO)[C@H]2OC(=O)/C=C/c2ccc(O)c(O)c2)[C@H](O)[C@H](O)[C@H]1O` [ACETOSIDE], in data set [1], the Tmax is 0.5 h. This molecule had a half-life in data set [2] of 1.5 h. The bioavailability in data set [3] is 4%.
